Test results as given in ChEMBL document CHEMBL1743201, “Casarett and Doull's Toxicology The Basic Science of Poisons, 7th edition” (2008).

Legend:
Type in all cases: ADME
Sulfotransferase 2B1 [1] = target: T1, Sulfotransferase 2B1 (Homo sapiens, UniProt O00204); test: Major substrate of human cytosolic sulfotransferase SULT2B1_v2
T1 sequence (O00204 whole entry): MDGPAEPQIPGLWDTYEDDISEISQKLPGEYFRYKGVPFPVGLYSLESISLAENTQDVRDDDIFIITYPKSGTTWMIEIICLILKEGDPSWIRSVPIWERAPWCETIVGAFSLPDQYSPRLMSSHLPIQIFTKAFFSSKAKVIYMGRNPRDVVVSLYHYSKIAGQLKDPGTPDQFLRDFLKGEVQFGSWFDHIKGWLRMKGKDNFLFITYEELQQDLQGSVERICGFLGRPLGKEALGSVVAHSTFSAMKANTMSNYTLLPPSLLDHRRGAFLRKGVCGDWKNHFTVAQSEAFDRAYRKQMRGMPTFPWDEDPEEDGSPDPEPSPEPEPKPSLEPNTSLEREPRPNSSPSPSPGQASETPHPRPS

[2] = target: Glutathione S-transferase omega-2 (Homo sapiens, UniProt Q9H4Y5); test: Substrates for human cytosolic glutathione transferase GSTO2
[3] = target: Glutathione S-transferase omega-1 (Homo sapiens, UniProt P78417); test: Substrates for human cytosolic glutathione transferase GSTO1
[4] = target: T2, Microsomal glutathione S-transferase 1 (Homo sapiens, UniProt P10620); test: Substrates for human microsomal glutathione transferase MGST1
T2 sequence (P10620 whole entry): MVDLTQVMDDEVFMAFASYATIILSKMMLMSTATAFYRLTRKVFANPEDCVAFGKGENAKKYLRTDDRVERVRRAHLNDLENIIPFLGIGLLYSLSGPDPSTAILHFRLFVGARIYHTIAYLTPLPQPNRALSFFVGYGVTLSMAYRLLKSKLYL

[5] = target: Glutathione S-transferase Mu 5 (Homo sapiens, UniProt P46439); test: Substrates for human cytosolic glutathione transferase GSTM5
[6] = target: Glutathione S-transferase Mu 4 (Homo sapiens, UniProt Q03013); test: Substrates for human cytosolic glutathione transferase GSTM4
[7] = target: Microsomal glutathione S-transferase 2 (Homo sapiens, UniProt Q99735); test: Substrates for human microsomal glutathione transferase MGST2
[8] = target: Glutathione S-transferase 3, mitochondrial (Homo sapiens, UniProt O14880); test: Substrates for human microsomal glutathione transferase MGST3
[9] = target: T3, Glutathione S-transferase kappa 1 (Homo sapiens, UniProt Q9Y2Q3); test: Substrates for human mitochondrial glutathione transferase GSTK1
T3 sequence (Q9Y2Q3 whole entry): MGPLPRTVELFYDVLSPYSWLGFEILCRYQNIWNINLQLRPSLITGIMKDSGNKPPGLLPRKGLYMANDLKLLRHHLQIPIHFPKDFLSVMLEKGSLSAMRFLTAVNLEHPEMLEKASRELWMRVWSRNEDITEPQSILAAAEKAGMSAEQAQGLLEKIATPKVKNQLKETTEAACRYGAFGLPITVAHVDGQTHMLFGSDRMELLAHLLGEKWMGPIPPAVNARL

[10] = target: T4, UDP-glucuronosyltransferase 1A3 (Homo sapiens, UniProt P35503); test: Substrate of human UDP-glucuronosyltransferase UGT1A3
T4 sequence (P35503 whole entry): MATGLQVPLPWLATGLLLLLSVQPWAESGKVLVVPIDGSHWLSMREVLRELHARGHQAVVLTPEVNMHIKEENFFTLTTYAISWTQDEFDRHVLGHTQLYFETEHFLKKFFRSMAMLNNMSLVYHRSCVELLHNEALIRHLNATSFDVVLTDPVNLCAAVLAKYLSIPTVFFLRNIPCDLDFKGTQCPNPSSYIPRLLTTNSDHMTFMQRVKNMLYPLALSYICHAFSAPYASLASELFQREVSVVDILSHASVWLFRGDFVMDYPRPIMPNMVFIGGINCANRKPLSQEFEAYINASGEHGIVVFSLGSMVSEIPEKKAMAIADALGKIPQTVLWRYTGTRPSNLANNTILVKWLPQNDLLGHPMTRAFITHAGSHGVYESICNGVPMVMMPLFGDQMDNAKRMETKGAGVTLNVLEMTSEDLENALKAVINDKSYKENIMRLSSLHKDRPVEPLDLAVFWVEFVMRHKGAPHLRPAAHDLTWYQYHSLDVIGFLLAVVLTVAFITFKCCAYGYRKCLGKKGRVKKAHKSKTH

Sulfotransferase 1A1 = Sulfotransferase 1A1 (Homo sapiens, UniProt P50225); test: Major substrate of human cytosolic sulfotransferase SULT1A1
Sulfotransferase 2A1 = target: T5, Sulfotransferase 2A1 (Homo sapiens, UniProt Q06520); test: Major substrate of human cytosolic sulfotransferase SULT2A1
T5 sequence (Q06520 whole entry): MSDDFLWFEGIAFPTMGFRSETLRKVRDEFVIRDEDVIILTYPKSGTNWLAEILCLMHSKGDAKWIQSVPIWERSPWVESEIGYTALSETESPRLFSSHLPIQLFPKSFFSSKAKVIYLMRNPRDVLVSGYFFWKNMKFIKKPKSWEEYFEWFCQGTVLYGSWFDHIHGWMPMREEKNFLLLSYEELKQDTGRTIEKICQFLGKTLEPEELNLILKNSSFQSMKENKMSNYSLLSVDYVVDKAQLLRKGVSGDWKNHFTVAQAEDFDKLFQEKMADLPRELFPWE

Sulfotransferase 1E1 = target: T6, Sulfotransferase 1E1 (Homo sapiens, UniProt P49888); test: Major substrate of human cytosolic sulfotransferase SULT1E1
T6 sequence (P49888 whole entry): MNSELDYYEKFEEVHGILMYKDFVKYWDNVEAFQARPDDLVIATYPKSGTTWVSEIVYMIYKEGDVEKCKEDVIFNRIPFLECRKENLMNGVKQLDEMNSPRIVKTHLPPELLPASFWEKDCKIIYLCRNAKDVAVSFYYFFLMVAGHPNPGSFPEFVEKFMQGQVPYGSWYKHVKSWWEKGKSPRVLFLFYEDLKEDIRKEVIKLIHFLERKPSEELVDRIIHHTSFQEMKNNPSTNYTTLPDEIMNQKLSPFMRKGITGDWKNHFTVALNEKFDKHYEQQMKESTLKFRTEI

[11] = target: UDP-glucuronosyltransferase 2B28 (Homo sapiens, UniProt Q9BY64); test: Substrate of human UDP-glucuronosyltransferase UGT2B28
[12] = target: T7, UDP-glucuronosyltransferase 2B7 (Homo sapiens, UniProt P16662); test: Substrate of human UDP-glucuronosyltransferase UGT2B7
T7 sequence (P16662 whole entry): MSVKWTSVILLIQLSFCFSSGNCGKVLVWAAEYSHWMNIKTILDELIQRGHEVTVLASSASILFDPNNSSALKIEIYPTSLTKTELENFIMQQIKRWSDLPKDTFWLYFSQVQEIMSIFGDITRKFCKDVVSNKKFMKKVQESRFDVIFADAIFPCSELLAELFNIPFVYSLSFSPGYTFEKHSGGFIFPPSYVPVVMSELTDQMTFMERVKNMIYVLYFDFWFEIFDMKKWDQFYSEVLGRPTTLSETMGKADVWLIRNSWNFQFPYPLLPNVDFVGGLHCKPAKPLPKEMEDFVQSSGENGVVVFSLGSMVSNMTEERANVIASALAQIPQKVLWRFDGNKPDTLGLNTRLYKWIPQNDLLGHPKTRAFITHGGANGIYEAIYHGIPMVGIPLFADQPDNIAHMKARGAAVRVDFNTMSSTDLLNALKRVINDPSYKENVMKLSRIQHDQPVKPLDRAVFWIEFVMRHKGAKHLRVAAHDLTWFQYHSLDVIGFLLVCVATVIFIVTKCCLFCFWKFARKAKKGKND

[13] = target: T8, UDP-glucuronosyltransferase 2B17 (Homo sapiens, UniProt O75795); test: Substrate of human UDP-glucuronosyltransferase UGT2B17
T8 sequence (O75795 whole entry): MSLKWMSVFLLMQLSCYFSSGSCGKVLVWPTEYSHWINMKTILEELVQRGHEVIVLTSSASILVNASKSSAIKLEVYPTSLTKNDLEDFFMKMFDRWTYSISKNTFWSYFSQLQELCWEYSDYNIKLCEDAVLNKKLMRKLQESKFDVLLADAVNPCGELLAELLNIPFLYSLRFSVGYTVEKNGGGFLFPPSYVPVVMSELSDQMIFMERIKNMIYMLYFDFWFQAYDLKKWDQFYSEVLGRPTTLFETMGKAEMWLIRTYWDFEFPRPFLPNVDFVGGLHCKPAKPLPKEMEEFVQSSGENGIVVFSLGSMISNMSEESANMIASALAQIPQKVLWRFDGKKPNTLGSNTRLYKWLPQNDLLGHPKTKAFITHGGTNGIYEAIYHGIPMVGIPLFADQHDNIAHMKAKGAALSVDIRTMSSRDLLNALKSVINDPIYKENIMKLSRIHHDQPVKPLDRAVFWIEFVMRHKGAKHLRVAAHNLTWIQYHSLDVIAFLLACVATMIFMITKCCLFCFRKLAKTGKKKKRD

[14] = target: T9, UDP-glucuronosyltransferase 1A6 (Homo sapiens, UniProt P19224); test: Substrate of human UDP-glucuronosyltransferase UGT1A6
T9 sequence (P19224 whole entry): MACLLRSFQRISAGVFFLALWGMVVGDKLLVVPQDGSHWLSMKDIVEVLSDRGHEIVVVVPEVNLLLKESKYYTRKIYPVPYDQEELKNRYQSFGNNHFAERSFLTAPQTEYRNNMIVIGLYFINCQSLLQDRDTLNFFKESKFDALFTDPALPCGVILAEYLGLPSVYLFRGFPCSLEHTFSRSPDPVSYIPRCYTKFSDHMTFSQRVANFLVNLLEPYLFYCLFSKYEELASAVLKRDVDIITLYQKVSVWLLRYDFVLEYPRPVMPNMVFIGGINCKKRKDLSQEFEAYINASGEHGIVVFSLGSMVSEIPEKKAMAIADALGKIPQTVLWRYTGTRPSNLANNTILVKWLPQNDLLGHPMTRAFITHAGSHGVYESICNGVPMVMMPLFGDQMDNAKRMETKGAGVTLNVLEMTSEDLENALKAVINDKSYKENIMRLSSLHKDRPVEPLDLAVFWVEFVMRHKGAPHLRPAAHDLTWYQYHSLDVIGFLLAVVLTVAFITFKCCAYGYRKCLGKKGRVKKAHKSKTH

[15] = target: UDP-glucuronosyltransferase 2A1 (Homo sapiens, UniProt P0DTE4); test: Substrate of human UDP-glucuronosyltransferase UGT2A1
[16] = target: T10, UDP-glucuronosyltransferase 1A9 (Homo sapiens, UniProt O60656); test: Substrate of human UDP-glucuronosyltransferase UGT1A9
T10 sequence (O60656 whole entry): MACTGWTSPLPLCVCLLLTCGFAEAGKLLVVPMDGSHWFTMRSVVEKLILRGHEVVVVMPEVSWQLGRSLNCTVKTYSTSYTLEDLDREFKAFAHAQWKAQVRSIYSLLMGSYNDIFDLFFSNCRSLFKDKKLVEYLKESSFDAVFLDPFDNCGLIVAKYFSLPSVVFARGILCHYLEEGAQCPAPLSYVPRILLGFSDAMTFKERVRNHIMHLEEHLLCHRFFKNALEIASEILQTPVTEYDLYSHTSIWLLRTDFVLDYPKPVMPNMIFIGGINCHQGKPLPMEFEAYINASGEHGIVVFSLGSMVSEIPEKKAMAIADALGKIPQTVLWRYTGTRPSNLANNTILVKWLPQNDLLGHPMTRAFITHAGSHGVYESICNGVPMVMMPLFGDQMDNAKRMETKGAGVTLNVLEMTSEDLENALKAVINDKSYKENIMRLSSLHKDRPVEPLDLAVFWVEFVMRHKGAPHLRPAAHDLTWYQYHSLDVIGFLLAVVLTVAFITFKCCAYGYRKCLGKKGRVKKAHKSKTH

Sulfotransferase 2B1 [17] = target: T1, Sulfotransferase 2B1; test: Major substrate of human cytosolic sulfotransferase SULT2B1_v1
[18] = target: T11, UDP-glucuronosyltransferase 1A8 (Homo sapiens, UniProt Q9HAW9); test: Substrate of human UDP-glucuronosyltransferase UGT1A8
T11 sequence (Q9HAW9 whole entry): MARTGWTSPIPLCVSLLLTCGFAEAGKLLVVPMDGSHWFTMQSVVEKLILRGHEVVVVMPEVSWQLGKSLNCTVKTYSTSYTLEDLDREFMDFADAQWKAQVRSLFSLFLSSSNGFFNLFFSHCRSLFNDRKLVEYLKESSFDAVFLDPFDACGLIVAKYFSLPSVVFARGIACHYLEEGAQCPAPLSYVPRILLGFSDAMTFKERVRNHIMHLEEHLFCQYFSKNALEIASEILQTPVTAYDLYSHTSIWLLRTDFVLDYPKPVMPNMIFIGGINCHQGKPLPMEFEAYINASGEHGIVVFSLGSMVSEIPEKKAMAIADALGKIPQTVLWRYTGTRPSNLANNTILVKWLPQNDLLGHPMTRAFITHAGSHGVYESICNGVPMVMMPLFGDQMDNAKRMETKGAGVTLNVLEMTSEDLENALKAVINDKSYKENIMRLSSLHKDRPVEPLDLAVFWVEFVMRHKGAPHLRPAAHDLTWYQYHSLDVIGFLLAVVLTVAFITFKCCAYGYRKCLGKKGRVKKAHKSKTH

Measured: Activity

UDP-glucuronosyltransferase 2B28, sequence (Q9BY64 whole entry): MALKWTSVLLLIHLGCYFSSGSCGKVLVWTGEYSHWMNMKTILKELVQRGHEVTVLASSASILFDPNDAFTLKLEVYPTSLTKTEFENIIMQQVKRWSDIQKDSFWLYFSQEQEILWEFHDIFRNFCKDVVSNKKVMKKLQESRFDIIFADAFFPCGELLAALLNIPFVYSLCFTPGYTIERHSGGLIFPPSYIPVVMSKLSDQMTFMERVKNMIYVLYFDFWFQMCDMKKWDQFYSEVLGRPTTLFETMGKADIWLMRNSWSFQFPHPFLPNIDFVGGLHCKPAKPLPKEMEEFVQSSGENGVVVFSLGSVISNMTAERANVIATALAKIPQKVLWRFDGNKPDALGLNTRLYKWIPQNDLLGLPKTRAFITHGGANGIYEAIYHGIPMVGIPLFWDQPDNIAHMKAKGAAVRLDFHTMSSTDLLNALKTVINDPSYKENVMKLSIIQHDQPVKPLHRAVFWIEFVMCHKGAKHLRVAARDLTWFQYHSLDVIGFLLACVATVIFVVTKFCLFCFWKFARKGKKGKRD
UDP-glucuronosyltransferase 2A1, sequence (P0DTE4 whole entry): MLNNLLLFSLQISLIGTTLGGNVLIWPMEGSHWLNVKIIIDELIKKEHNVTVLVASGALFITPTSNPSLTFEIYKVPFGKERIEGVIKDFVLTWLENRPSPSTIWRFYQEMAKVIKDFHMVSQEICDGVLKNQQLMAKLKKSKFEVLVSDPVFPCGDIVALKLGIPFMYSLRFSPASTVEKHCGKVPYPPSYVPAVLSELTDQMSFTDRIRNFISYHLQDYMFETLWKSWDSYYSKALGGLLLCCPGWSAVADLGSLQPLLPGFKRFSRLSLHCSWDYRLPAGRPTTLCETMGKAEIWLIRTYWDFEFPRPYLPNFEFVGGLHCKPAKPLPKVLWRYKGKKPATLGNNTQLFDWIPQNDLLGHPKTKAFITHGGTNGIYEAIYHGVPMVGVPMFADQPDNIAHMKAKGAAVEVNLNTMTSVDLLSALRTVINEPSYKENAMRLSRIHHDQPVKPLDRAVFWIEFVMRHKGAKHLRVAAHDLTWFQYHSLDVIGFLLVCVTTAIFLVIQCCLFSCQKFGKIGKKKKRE
Microsomal glutathione S-transferase 2, sequence (Q99735 whole entry): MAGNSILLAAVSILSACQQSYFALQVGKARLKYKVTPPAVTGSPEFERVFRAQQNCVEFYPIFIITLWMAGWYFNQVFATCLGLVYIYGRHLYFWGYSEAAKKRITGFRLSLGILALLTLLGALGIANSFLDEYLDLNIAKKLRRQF
Glutathione S-transferase 3, mitochondrial, sequence (O14880 whole entry): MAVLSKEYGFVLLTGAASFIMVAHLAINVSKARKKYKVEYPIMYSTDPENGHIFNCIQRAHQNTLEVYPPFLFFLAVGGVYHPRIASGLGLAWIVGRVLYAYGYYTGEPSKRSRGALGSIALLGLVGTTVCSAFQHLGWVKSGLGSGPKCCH
Glutathione S-transferase omega-2, sequence (Q9H4Y5 whole entry): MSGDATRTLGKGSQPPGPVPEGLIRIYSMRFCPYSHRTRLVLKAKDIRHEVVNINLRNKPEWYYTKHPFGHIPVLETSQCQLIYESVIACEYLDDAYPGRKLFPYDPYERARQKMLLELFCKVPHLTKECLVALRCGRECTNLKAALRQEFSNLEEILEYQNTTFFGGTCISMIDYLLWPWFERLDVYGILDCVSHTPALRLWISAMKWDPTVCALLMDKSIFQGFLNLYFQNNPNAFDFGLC
Sulfotransferase 1A1, sequence (P50225 whole entry): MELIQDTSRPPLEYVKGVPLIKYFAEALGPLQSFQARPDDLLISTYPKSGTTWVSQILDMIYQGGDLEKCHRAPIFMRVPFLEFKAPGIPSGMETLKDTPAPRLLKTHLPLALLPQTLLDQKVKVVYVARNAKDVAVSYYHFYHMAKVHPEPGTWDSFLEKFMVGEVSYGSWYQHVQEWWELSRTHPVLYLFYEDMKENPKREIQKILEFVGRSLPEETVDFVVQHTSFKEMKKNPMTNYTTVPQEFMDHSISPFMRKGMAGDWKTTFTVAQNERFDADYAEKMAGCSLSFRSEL
Glutathione S-transferase omega-1, sequence (P78417 whole entry): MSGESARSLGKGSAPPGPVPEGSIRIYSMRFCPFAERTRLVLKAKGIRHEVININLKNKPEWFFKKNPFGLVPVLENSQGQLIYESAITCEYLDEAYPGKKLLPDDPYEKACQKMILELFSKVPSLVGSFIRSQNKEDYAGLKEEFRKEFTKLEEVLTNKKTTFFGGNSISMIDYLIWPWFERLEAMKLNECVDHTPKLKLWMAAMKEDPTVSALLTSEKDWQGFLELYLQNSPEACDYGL
Glutathione S-transferase Mu 4, sequence (Q03013 whole entry): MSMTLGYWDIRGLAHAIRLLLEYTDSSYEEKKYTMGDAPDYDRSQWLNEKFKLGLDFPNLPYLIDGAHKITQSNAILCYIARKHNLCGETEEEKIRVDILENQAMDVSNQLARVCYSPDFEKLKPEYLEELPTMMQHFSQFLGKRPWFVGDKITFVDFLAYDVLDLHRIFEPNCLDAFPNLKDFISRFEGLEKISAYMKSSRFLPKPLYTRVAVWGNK
Glutathione S-transferase Mu 5, sequence (P46439 whole entry): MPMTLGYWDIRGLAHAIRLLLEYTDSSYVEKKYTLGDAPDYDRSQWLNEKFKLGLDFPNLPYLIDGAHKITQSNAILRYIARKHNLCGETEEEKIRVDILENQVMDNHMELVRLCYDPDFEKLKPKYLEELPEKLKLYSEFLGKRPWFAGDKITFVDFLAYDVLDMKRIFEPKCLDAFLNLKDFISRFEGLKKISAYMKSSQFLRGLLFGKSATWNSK

CC(C)CCC[C@@H](C)[C@H]1CC[C@H]2[C@@H]3CC=C4C[C@@H](O)CC[C@]4(C)[C@H]3CC[C@]12C [CHOLESTEROL]
Substrate: Sulfotransferase 2B1 [1]

O=C1OC(C(O)CO)C(=O)C1=O (stereo not drawn) [DEHYDROASCORBIC ACID]
Substrate: [2] | [3]

O=[N+]([O-])c1ccc(Cl)c([N+](=O)[O-])c1 [DINITROCHLOROBENZENE]
Substrate: [4] | [5] | [6] | [7] | [8] | [9]

C[C@]12CC[C@@H]3c4ccc(O)cc4CC[C@H]3[C@@H]1CC[C@@H]2O [ESTRADIOL]
Substrate: [10] | Sulfotransferase 1A1 | Sulfotransferase 2A1 | Sulfotransferase 1E1 | [11]

CC(C)Cc1ccc(C(C)C(=O)O)cc1 (stereo not drawn) [IBUPROFEN]
Substrate: [10] | [12] | [13] | [14] | [15] | [16]

C[C@]12CC[C@H](O)CC1=CC[C@@H]1[C@@H]2CC[C@]2(C)C(=O)CC[C@@H]12 [PRASTERONE]
Substrate: Sulfotransferase 2B1 [17] | Sulfotransferase 2A1 | Sulfotransferase 1E1 | Sulfotransferase 2B1 [1]

CC(=O)[C@H]1CC[C@H]2[C@@H]3CC=C4C[C@@H](O)CC[C@]4(C)[C@H]3CC[C@]12C [PREGNENOLONE]
Substrate: Sulfotransferase 2B1 [17] | Sulfotransferase 2A1 | Sulfotransferase 1E1

C[C@]12CC[C@H]3[C@@H](CCC4=CC(=O)CC[C@@]43C)[C@@H]1CC[C@@H]2O [TESTOSTERONE]
Substrate: Sulfotransferase 2A1 | [11]

CCCC(CCC)C(=O)O [VALPROIC ACID]
Substrate: [10] | [12] | [15] | [18]
